Measured values reported in patent US11691960B2, “2-[thiophen-2-yl)formamido]-N-(phenyl)-2-methylpropanamide derivatives and the use thereof as medicament” (Boehringer Ingelheim International GmbH, priority 2020, dated 2023).
pIC50: −log10 of the molar value. Where two headings read alike, the source gives them in different places.

Columns and labels:
MDR1 (P-gp) = MDR1 (P-gp) (Homo sapiens (Human), UniProt P08183); assay: Assay E: MDCK assay MDR-1 (P-gp); format: in vitro ADME; settings: for efflux ratio at 2 h, 10 μM: human, final test concentration 10 μM
Sequence of MDR1 (P-gp) (P08183 whole entry): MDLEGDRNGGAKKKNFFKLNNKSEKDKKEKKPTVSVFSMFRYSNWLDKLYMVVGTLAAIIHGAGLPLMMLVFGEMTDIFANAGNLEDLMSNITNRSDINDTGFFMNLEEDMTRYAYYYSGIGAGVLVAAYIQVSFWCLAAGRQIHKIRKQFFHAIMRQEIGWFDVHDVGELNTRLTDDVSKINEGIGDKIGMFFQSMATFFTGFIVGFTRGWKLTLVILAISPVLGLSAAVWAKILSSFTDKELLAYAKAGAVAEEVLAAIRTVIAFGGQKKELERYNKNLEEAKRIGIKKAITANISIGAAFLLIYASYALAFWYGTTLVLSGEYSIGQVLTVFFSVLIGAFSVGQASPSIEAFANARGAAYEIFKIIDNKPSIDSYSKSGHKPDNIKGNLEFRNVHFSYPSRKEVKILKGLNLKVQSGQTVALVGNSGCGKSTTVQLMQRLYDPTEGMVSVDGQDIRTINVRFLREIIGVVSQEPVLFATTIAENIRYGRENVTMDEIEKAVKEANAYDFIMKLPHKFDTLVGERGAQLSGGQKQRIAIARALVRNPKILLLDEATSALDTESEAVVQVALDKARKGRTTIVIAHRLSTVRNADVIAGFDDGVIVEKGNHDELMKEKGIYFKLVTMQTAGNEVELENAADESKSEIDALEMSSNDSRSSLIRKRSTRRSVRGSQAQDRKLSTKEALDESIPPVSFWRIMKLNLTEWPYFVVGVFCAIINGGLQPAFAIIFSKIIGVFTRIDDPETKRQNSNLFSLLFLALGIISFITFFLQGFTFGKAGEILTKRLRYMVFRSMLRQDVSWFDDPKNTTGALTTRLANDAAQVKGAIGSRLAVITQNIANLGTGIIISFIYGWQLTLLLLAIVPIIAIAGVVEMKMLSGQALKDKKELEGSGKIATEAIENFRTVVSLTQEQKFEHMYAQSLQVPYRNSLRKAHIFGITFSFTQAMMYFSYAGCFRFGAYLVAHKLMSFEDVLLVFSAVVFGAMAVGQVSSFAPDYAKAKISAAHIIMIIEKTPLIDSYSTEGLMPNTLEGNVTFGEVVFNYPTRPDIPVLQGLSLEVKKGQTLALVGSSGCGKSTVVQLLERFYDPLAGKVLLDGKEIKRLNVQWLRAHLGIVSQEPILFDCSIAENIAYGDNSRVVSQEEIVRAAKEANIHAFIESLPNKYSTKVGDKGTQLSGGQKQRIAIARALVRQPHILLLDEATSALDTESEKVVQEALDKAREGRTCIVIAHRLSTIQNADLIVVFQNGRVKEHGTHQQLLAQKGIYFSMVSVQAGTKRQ
Procedure: The MDCK assays provide information on the potential of a compound to pass the blood brain barrier. Permeability measurements across polarized, confluent MDCK-MDR1 cell monolayers grown on permeable filter supports are used as an in vitro absorption model: apparent permeability coefficients (PE) of the compounds across the MDCK-MDR1 cell monolayers are measured (pH 7.4, 37° C.) in apical-to-basal (AB) and basal-to-apical (BA) transport direction. The AB permeability (PEAB) represents drug absorption from the blood into the brain and the BA permeability (PEBA) drug efflux from the brain back into the blood via both, passive permeability as well as active transport mechanisms mediated by efflux and uptake transporters that are expressed on the MDCK-MDR1 cells, predominantly by the overexpressed human MDR1. Identical or similar permeabilities in both transport directions indicate passive permeation, vectorial permeability points to additional active transport mechanisms. Higher PEBA than PEAB (PEBA/PEAB >3) indicates the involvement of active efflux mediated by MDR1, which might compromise the goal to achieve sufficient brain exposure.
Assay E. MDCK assay MDR-1 (P-gp)
Apparent permeability coefficients (Papp) of the compounds across MDCK-MDR1 monolayers (MDCKII cells transfected with human MDR1 gene) are measured in apical-to-basal (AB) and basal-to-apical (BA) direction.
MDCK-MDR1 cells (6×10^5 cells/cm^2) are seeded onto filter inserts (Corning, Transwell, polycarbonate, 0.4 μm pore size) and cultured for 9 to 10 days. Compounds dissolved in DMSO stock solution (1-20 mM) are diluted with HTP-4 buffer (128.13 mM NaCl, 5.36 mM KCl, 1 mM MgSO4, 1.8 mM CaCl2, 4.17 mM NaHCO3, 1.19 mM Na2HPO4, 0.41 mM NaH2PO4, 15 mM HEPES, 20 mM glucose, pH 7.4) supplemented with 0.25% BSA to prepare the transport solutions, resulting in a final test concentration of 1 μM or 10 μM and a final DMSO content of 0.5%. The transport solution is applied to the apical or basolateral donor side for measuring A-B or B-A permeability, respectively. The receiver side contains HTP-4 buffer supplemented with 0.25% BSA. Samples are collected at the start and end of experiment from the donor and at various time intervals for up to 2 hours from the receiver side for concentration measurement by HPLC-MS/MS. Sampled receiver volumes are replaced with fresh receiver solution.
All data reported for Assay E were measured with a final test concentration of 10 μM.

human Factor Xa = human Factor Xa (Homo sapiens (Human), UniProt P00742); assay: Assay C: human Factor Xa chromogenic substrate assay; format: biochemical; settings: for pIC50: human Factor Xa 0.86 nM, chromogenic substrate S2765; for Selectivity Assay C/Assay A: ratio IC50 Factor Xa / IC50 IDO1
Sequence of human Factor Xa (P00742 235-488): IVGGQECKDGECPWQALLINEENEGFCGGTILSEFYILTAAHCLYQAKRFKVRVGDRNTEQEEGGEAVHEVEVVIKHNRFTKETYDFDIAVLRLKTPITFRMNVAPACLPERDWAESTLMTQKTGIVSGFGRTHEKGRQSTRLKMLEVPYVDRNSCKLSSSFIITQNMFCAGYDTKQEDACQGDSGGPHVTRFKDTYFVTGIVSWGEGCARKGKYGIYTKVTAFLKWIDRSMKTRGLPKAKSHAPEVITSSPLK
Sequence of human Factor Xa (P00742 41-179 partner): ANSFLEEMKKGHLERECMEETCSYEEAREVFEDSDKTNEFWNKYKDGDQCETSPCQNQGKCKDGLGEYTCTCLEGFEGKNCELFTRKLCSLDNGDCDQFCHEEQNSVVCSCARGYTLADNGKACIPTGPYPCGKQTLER
Procedure: Assay C. In Vitro Testing of Human Factor Xa Potency:
Measurement of active human Factor Xa using a specific chromogenic substrate which is labeled with a p-nitro-anilino group (pNA). The cleavage in between the binding of the peptide substrate and the pNA-group is followed by a color change, which can be detected at 405 nm. The amount of cleaved substrate is directly proportional to the amount of active Xa.
[…] (100 U) human Factor Xa (Enzyme Research Laboratories; HFXa1011) were solved in 0.444 ml H2O (Millipore), which accords to a stock solution of 19.28 μM or 225 U/ml. Further dilutions were made in the assay buffer (Tris 100 mM, NaCL 150 mM, adjusted to a pH of 7.8 with HCL, containing 0.1% BSA and 0.05% Tween20). 25 mg (1 vial) of the chromogenic substrate S2765 (Chromogenix; S2765) was solved in 3.5 ml H2O (Millipore) to achieve a stock solution of 10 mM.
Compounds were solved and diluted in DMSO where the final dilution in the assay is 1:10 resulting in a final concentration of 1% DMSO.
• the prefinal dilution step was 1:10 in the assay buffer containing 11% DMSO resulting in 10% DMSO • final dilution in the assay is 1:10 resulting in a final concentration of 1% DMSO
Compounds were tested at final concentrations of 10 μM to 0.003 nM or lower. 5 μl human factor Xa (final concentration 0.86 nM), 2 μl compound dilution or assay buffer (containing 10% DMSO) and 8 μl assay buffer were pipetted in triplicates into a 384-well plate and incubated in the Thermomix at 24° C. for 10 minutes.
After addition of 5 μl chromogenic substrate (final concentration 0.5 mM) the enzyme-substrate reaction started and the kinetic measurement with the SpectraMax Monochromator was started within 1-2 minutes. • Parameter of measurement: (Spectra ax, Monochromator) • Absorbance; 1.LM 405 nM • Kinetic: 16 min each 2nd minute (9 times) • Negative Control (NC) 5 μl human factor Xa+10 μl assay buffer+5 μl Substrate • Positive Control (PC): 5 μl human factor Xa+2 μl Nafamostat (commercially available, final concentration: 1 μM)+8 μl assay buffer+5 μl Substrate • Blank (optional): 15 μl assay buffer+5 μl Substrate
Calculation of IC50, KI and the % effect at the highest concentration (Ratio)
For the calculation the average of the Vmax-values in between 120 sec to 720 sec were taken.
A x/y-Plot was created: x=log (M, Compound); y=vmax (drfu/min)
The data were analyzed with the curve fitting model: log (inhibitor) vs. response—Variable slope (four parameters)
The results of this fit were Top, Bottom, Log (IC50, M), Hillslope and IC50 (M)

human androgen receptor = human androgen receptor (Homo sapiens (Human), UniProt P10275); assay: Assay B: human androgen receptor luciferase reporter assay (Indigo Biosciences); format: cell-based
Sequence of human androgen receptor (P10275 whole entry): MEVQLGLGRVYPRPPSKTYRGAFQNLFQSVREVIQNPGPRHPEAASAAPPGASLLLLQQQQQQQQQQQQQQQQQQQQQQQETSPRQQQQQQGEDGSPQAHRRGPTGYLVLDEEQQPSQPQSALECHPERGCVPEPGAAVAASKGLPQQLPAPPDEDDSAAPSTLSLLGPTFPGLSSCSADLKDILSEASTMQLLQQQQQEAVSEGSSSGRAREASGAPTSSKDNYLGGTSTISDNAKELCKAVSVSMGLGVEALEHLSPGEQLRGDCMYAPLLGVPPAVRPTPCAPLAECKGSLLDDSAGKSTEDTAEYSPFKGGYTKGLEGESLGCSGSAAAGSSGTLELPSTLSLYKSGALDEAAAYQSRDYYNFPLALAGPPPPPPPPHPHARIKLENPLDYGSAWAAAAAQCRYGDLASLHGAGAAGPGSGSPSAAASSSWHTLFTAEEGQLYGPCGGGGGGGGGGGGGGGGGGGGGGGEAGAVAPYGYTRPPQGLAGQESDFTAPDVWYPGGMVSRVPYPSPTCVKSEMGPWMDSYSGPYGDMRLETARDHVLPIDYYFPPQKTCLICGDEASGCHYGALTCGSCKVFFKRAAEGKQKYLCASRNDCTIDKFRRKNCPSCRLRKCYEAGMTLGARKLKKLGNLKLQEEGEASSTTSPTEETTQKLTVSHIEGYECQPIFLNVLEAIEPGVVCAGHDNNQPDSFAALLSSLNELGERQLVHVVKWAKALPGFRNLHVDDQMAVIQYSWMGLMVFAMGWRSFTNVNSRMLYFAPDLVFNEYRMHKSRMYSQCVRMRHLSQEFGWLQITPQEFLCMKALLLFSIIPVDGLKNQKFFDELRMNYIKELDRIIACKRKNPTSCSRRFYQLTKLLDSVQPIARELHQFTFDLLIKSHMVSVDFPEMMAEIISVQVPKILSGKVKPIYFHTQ
Text: Assay B. In Vitro Testing of Androgen Receptor Potency:
The human androgen receptor (AR) assay was run using Product #IB03001 from Indigo Biosciences. The cell line provided in this kit carries a reporter gene, induced upon AR stimulation. This reporter gene is cDNA encoding for beetle luciferase, a 62 kD protein originating from the North American firefly (Photinus pyralis). This luciferase catalyzes the mono-oxidation of D-luciferin yielding oxyluciferin, adenosine monophosphate, pyrophosphate, CO2, and photon emission. The luminescence intensity of the reaction is quantified using a luminometer.
To run the assay, the cells are thawed by adding pre-warmed cell recovery medium to each tube, then placed in a 37° C. water bath. 30000 viable cells in 200 μl are plated (collagen coated plates) and incubated at 37° C., ≥85% humidity, 5% CO2 for 24 hours. Media is replaced with compound screening medium. Cells are then challenged with 125 pM (EC80) 6a-Fl Testosterone and compounds are applied in half logarithmic dilutions from 10 μM to 10 nM. Assay plates are then incubated at 37° C., ≥85% humidity, 5% CO2 for 22-24 hours. Media is replaced with luciferase detection reagent and allowed 5 minutes to equilibrate prior to luminescence quantification.
Data Analysis consisted of calculating percentage of control between 100% (Negative control:6a-Fl Testosterone) and 0 (positive control: no 6a-FL Testosterone). Fitting of normalized values was made 4-Parameter sigmoidal binding curve (Log[conc]) vs. signal.

[1] = Assay F: tissue distribution in rat after oral application; format: in vivo; settings: for in vivo efflux (in words): after oral application; for in vivo efflux (Assay F): oral 10 μmol/kg, muscle/brain tissue distribution
Text: In order to estimate the amount of administered drug to enter the brain, the brain to plasma ratio is used as surrogate parameter. As efflux transporters (e.g. P-gp) are located at the blood-brain barrier, compounds acting as substrates will be actively transported out of the brain. As these efflux transporters are not expressed in muscle tissue, the relative distribution ratio of compound between muscle and brain tissue can be used as indication for an efflux in vivo in rats or mice. In case there is no in vivo efflux detectable (in rats/mice) and in case there is no efflux in vitro (MDCK-MDR1 (P-gp)), a brain exposure in patients can be expected [see Table 7 for comparison of in vitro efflux data (MDCK-MDR1 assay) and in vivo efflux data (tissue distribution in rat/mouse after oral application)].
Assay F. Determination of Tissue Distribution in Rat/Mouse After Oral Application of Compounds
Male Han Wistar rats or C57BL/6NRj mice were orally dosed with 10 μmol/kg of compound to be investigated, suspended in 0.5% Natrosol/0.015% Tween80. Blood was collected in K3EDTA containing vials from the sublingual vein in short time Isoflurane anesthesia in rat or from the saphenous vein in conscious mice at […], 0.25, 0.5, 1, 2, 3, 4, 8 and 24 hours post administration. Subsequently, plasma was prepared by centrifugation for 5 min at 5000 rpm and stored at −20° C.
Tissues and CSF were sampled in anaesthetized animals. CSF was collected from the cisterna magna. Following exsanguination a femoral muscle sample was collected. Cranium and the dura matter were removed and the complete brain was collected. Before transfer of the muscle and brain sample to pre-weight homogenization devices (Precellys®) the tissues were rinsed with saline and blotted dry.
For homogenization, four parts (v/w) homogenization buffer (37.5% acetonitrile, 37.5% methanol, 25% water) were added. Tissues were homogenized with a Precellys® Evolution homogenizer. Five μL of the homogenate were added to 70 μL of a 1 to 1 (v/v) mixture of acetonitrile and methanol and frozen for at least 10 min at −18° C.
For final sample preparation, the sample was centrifuged at 4000 rpm for 1 min, and an aliquot of the resulting supernatant (30 μL) was mixed with 170 μL formic acid prior to injection to LC-MS. Calibration curves were prepared accordingly in rat and mouse plasma, respectively. All animal care and experimental procedures at Boehringer Ingelheim were conducted in compliance with the German and European Animal Welfare Act (EU Directive 2010/63/EU) and were approved by the Regierungspräsidium Tübingen as the responsible local German authority (reference number 35/9185.81-8/14-009-G).

[2] = pH 7.4, MDCK-MDR1 monolayers, mean +− standard deviation, read-out: Efflux ratio Assay E
[3] = MDCK-MDR1, pH 7.4, Table 7, read-out: MDCK-MDR1 efflux ratio (Assay E)

in vitro efflux, MDCK-MDR1 (in words) (MDR1 (P-gp))	efflux ratio at 2 h, 10 μM (MDR1 (P-gp); [2])	inhibition of the human Factor Xa enzyme (in words) (human Factor Xa)	pIC50 (human Factor Xa)	Selectivity Assay C/Assay A (human Factor Xa)	pIC50 (human androgen receptor; challenge with 125 pM (EC80) 6a-Fl Testosterone, mean +− standard deviation)	Selectivity Assay B/Assay A (human androgen receptor; ratio IC50 androgen receptor / IC50 IDO1)	in vivo efflux (in words) [1]	in vivo efflux (Assay F) [1]	efflux ratio at 2 h, 10 μM (MDR1 (P-gp); [3])	Compound
high efflux	5.7	inhibits the human Factor Xa enzyme	8.10	0.03	–	–	–	–	–	Cc1cc(NC(=O)C(C)(C)NC(=O)c2ccc(Cl)s2)ccc1C(=O)N1CCCC1 [WO2005/111014 Ex. 4]
high efflux	–	inhibit the human Factor Xa enzyme	7.40	0.01	–	–	–	–	–	Cc1cc(NC(=O)C(C)(C)NC(=O)c2ccc(Cl)s2)ccc1N1CCOCC1=O [WO2005/111029 Ex. 8]
high efflux	–	inhibit the human Factor Xa enzyme	7.59	0.11	–	–	–	–	–	CC(C)(NC(=O)c1ccc(Br)s1)C(=O)Nc1ccc(N2CCOCC2=O)c(Cl)c1 [WO2005/111029 Ex. 28]
–	–	–	< 5.00	>175	–	–	substantial in vivo efflux	3.3 (rat)	1	CC(C)(NC(=O)c1ccc(Cl)s1)C(=O)Nc1ccc2c(c1)CCN(C(=O)C(F)(F)F)CC2 [WO2007/003536 Ex. 4]
–	–	–	< 5.00	>164	–	–	substantial in vivo efflux	12.6 (rat)	7.6	CC(=O)N1CCc2ccc(NC(=O)C(C)(C)NC(=O)c3ccc(Cl)s3)cc2CC1 [WO2007/003536 Ex. 6]

Second part, the molecule before the results:

Compound	in vitro efflux, MDCK-MDR1 (in words) (MDR1 (P-gp))	efflux ratio at 2 h, 10 μM (MDR1 (P-gp); [2])	inhibition of the human Factor Xa enzyme (in words) (human Factor Xa)	pIC50 (human Factor Xa)	Selectivity Assay C/Assay A (human Factor Xa)	pIC50 (human androgen receptor; challenge with 125 pM (EC80) 6a-Fl Testosterone, mean +− standard deviation)	Selectivity Assay B/Assay A (human androgen receptor; ratio IC50 androgen receptor / IC50 IDO1)	in vivo efflux (in words) [1]	in vivo efflux (Assay F) [1]	efflux ratio at 2 h, 10 μM (MDR1 (P-gp); [3])
C#Cc1ccc(C(=O)NC(C)(C(=O)Nc2ccc(N3CCOCC3=O)c(C)c2)C(F)(F)F)s1 (stereo not shown) [5-ethynyl-N-{1-trifluoromethyl-1-[3-methyl-4-(3-oxomorpholin-4-yl)phenylcarbamoyl]ethyl}thiophene-2-carboxamide]	high efflux ratio	32	inhibits the human Factor Xa enzyme	7.32	0.08	–	–	–	–	–
CC(C)(NC(=O)c1ccc(Cl)s1)C(=O)Nc1ccc(Cl)cc1 [Example 5, 2-[(5-chlorothiophen-2-yl)formamido]-N-(4-chlorophenyl)-2-methylpropanamide]	–	–	–	< 5.00	>57	< 5.00	>58	–	–	–
CC(C)(NC(=O)c1ccc(Cl)s1)C(=O)Nc1ncc2c(n1)CCN(Cc1ccccc1)CC2 [WO2007/003536 Ex. 159]	–	–	–	< 5.00	>13	–	–	substantial in vivo efflux	6.2 (rat)	1.8
